The target in experiment [1] is T1, human phosphodiesterase 5 (PDE-5) (Homo sapiens, UniProt O76074).
T1 construct: PDE-5 preparations are obtained from human platelets by lysis; from tissue; host or cells: human platelets
The experiment can be described thus: Inhibition of human phosphodiesterase 5 (PDE-5), SPA assay. Type of experiment: biochemical. The settings on record: PDE-5 preparation from human platelets, [8-3H]cGMP substrate. Put shortly:
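Scintillation proximity read-out with yttrium beads after 60 min room-temperature hydrolysis of 0.025 μCi [8-3H]cGMP, pH 7.5 Tris/MgCl2/EDTA buffer. Enzyme is a human platelet PDE-5 fraction, diluted to keep substrate turnover below 70%. Test concentrations 4 μM–0.0018 μM final; IC50 from inhibition curves.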

For experiment [2], the target named is T2, recombinant guanylate cyclase reporter cell line (Rattus norvegicus, UniProt P19686+P20595).
T2 construct: expressed in transfected cells
T2 sequence (P20595 1-619): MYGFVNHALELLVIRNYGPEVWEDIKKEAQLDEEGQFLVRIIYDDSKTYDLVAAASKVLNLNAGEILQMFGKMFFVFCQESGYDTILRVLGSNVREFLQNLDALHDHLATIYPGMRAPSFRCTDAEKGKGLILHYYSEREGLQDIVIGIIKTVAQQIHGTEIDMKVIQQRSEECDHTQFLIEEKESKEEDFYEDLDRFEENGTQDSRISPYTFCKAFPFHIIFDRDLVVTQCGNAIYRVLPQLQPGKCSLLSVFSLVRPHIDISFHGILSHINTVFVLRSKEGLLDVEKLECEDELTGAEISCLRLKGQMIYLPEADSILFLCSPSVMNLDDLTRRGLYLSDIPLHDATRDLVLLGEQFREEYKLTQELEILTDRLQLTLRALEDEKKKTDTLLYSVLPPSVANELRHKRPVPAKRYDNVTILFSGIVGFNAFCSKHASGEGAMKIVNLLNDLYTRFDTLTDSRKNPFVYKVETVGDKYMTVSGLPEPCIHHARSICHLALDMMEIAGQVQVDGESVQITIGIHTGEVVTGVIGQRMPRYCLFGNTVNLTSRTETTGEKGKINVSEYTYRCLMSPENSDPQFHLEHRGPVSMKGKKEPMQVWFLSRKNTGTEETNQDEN
T2 sequence (P19686 1-690): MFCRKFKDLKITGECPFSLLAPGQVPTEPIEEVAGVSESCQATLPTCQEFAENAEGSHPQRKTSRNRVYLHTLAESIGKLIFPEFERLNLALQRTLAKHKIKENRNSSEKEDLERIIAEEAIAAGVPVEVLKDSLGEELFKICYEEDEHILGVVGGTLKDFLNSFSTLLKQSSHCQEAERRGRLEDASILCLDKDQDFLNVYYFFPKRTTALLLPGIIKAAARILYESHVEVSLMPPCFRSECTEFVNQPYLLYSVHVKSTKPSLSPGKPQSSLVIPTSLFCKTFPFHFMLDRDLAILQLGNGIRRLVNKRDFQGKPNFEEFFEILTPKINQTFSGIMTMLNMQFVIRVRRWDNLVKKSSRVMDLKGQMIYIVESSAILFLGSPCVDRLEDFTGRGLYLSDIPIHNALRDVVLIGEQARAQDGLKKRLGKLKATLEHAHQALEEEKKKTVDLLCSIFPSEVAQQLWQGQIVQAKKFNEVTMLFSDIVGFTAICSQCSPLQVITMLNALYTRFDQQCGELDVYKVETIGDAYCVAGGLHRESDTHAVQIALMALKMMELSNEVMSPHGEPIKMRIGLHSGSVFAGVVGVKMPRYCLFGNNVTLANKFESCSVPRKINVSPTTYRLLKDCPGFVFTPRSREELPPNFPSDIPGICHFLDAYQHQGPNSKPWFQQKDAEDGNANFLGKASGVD
Put plainly: Action on recombinant guanylate cyclase reporter cell line. The class given is cell-based. As to the method:
B-2. Action on Recombinant Guanylate Cyclase Reporter Cell Line
The cellular action of the compounds according to the invention is determined on a recombinant guanylate cyclase reporter cell line, as described in F. Wunder et al., Anal. Biochem. 339, 104-112 (2005).

The subject of experiment [3] is aorta rings. Put plainly: Vessel-relaxing action in vitro (aorta rings, phenylephrine contraction). The settings on record: concentration required to reduce phenylephrine-induced contraction of rabbit aorta rings by 50%. As to the method:
B-1. Vessel-relaxing Action in vitro
Rabbits are stunned with a blow on the back of the neck and exsanguinated. The aorta is removed, freed from adhering tissue, separated into rings with a width of 1.5 mm, and placed individually, with preloading, in 5-ml organ baths with carbogen-gassed Krebs-Henseleit solution at 37° C. with the following composition (mM in each case): sodium chloride: 119; potassium chloride: 4.8; calcium chloride dihydrate: 1; magnesium sulphate heptahydrate: 1.4; potassium dihydrogen phosphate: 1.2; sodium hydrogen carbonate: 25; glucose: 10. The contraction force is recorded with Statham UC2 cells, amplified and digitized via an A/D converter (DAS-1802 HC, Keithley Instruments Munich) and recorded in parallel on a continuous-line recorder. To produce contraction, phenylephrine is added to the bath cumulatively in increasing concentration. After several control cycles, the test substance is added in increasing dosage in each subsequent pass and the level of contraction is compared with the level of contraction reached in the immediately preceding pass. This is used for calculating the concentration that is required to reduce the level of the control value by 50% (IC50 value). The standard application volume is 5 μl, and the proportion of DMSO in the bath solution corresponds to 0.1%.

From US8859569B2, “Substituted annellated pyrimidines and use thereof” (Bayer Pharma Aktiengesellschaft, priority 2011, dated 2014) come the findings set out here.

By IC50 is commonly meant the point on the concentration scale where inhibition reaches its midpoint.

For `CC(C)(N)CNc1nc(-c2nn(Cc3ccccc3F)c3ncc(F)cc23)nc2c1C(C)(C)C(=O)N2` [Example 3, 4-[(2-Amino-2-methylpropyl)amino]-2-[5-fluoro-1-(2-fluorobenzyl)-1H-pyrazolo[3,4-b]pyridin-3-yl]-5,5-dimethyl-5,7-dihydro-6H-pyrrolo[2,3-d]pyrimidin-6-one], the 50% inhibitory concentration (IC50) in experiment [1] came to 46 nM; in experiment [3] (Oryctolagus cuniculus) it was 469 nM. Besides, the “MEC (minimal effective concentration)” value in experiment [2] amounted to 3.0 μm.
Consider `CC1(C)C(=O)Nc2nc(-n3nc(Cc4ccccc4F)c4cc(F)ccc43)nc(O)c21` [Example 31, 2-[5-Fluoro-3-(2-fluorobenzyl)-1H-indazol-1-yl]-4-hydroxy-5,5-dimethyl-5,7-dihydro-6H-pyrrolo[2,3-d]pyrimidin-6-one], for which the IC50 in experiment [1] is 500 nM; in experiment [3] (Oryctolagus cuniculus), 142 nM. For the same compound, in experiment [2], the “MEC (minimal effective concentration)” value came to 0.01 μm.
For `C[C@@H](Nc1nc(-c2nn(Cc3ccccc3F)c3ncc(F)cc23)nc2c1C(C)(C)C(=O)N2)C1CC1` [Example 88, 4-{[(1R)-1-Cyclopropylethyl]amino}-2-[5-fluoro-1-(2-fluorobenzyl)-1H-pyrazolo[3,4-b]pyridin-3-yl]-5,5-dimethyl-5,7-dihydro-6H-pyrrolo[2,3-d]pyrimidin-6-one], in that order: 150 nM, 1670 nM and 0.1 μm.
Take `CC1(C)C(=O)Nc2nc(-c3nn(Cc4ccccc4F)c4ncc(F)cc34)nc(NCC(O)C(F)(F)F)c21` (single isomer, unassigned) [Example 96-1, 2-[5-Fluoro-1-(2-fluorobenzyl)-1H-pyrazolo[3,4-b]pyridin-3-yl]-5,5-dimethyl-4-[(3,3,3-trifluoro-2-hydroxypropyl)amino]-5,7-dihydro-6H-pyrrolo[2,3-d]pyrimidin-6-one]: the IC50 in experiment [1] came to 150 nM; in experiment [3] it was 1470 nM. Also, the “MEC (minimal effective concentration)” value in experiment [2] is given as 0.1 μm.
For `CC1(C)C(=O)Nc2nc(-c3nn(Cc4ccccc4F)c4ncccc34)nc(N3CCC(C(F)(F)F)C3)c21` (stereo not drawn) [Example 33, 2-[1-(2-Fluorobenzyl)-1H-pyrazolo[3,4-b]pyridin-3-yl]-5,5-dimethyl-4-[3-(trifluoromethyl)pyrrolidin-1-yl]-5,7-dihydro-6H-pyrrolo[2,3-d]pyrimidin-6-one], the IC50 in experiment [1] is 570 nM; in experiment [3] (Oryctolagus cuniculus), 696 nM. Moreover, in experiment [2], the “MEC (minimal effective concentration)” value worked out at 0.3 μm.
For `CC1(C)C(=O)Nc2nc(-c3nn(Cc4ccccc4F)c4ncccc34)nc(N3CC(C(F)(F)F)CC3=O)c21` (stereo not drawn) [Example 25, 2-[1-(2-Fluorobenzyl)-1H-pyrazolo[3,4-b]pyridin-3-yl]-5,5-dimethyl-4-[2-oxo-4-(trifluoromethyl)pyrrolidin-1-yl]-5,7-dihydro-6H-pyrrolo[2,3-d]pyrimidin-6-one] the same measures were 320 nM, 501 nM and 0.1 μm.
For `CC1(C)C(=O)Nc2nc(-c3nn(Cc4ccccc4F)c4ncccc34)nc(N3CCS(=O)(=O)CC3)c21` [Example 93, 4-(1,1-Dioxidothiomorpholin-4-yl)-2-[1-(2-fluorobenzyl)-1H-pyrazolo[3,4-b]pyridin-3-yl]-5,5-dimethyl-5,7-dihydro-6H-pyrrolo[2,3-d]pyrimidin-6-one] the same measures were 120 nM, 984 nM and 0.3 μm.
In the case of `C[C@H](Nc1nc(-c2nn(Cc3ccccc3F)c3ncc(F)cc23)nc2c1C(C)(C)C(=O)N2)C1CC1` [Example 89, 4-{[(1S)-1-Cyclopropylethyl]amino}-2-[5-fluoro-1-(2-fluorobenzyl)-1H-pyrazolo[3,4-b]pyridin-3-yl]-5,5-dimethyl-5,7-dihydro-6H-pyrrolo[2,3-d]pyrimidin-6-one], the IC50 is 82 nM in experiment [1] and 3880 nM in experiment [3] (Oryctolagus cuniculus). For the same compound, the “MEC (minimal effective concentration)” value in experiment [2] is recorded as 0.03 μm.
